Here are results for two compounds from US20250145622A1, “SOLID FORMS OF A TRIAZINE DERIVATIVE AS CBL-B MODULATOR” (HOTSPOT THERAPEUTICS, INC., priority 2022, published 2025).

Type in all cases: physicochemical
Data set [1] can be described thus: Solubility determination by solvent addition (visual assessment). The note with it: thermodynamic from solid. The procedure:
Aliquots of various solvents were added to measured amounts of the anhydrous crystalline form of the compound of formula (I) at various temperatures with sonication or stirring. Solubilities were calculated based on the total solvent used to give a solution; actual solubilities may be greater because of the volume of solvent portions utilized or a slow rate of dissolution. […] If dissolution occurred at the first aliquot the value was reported as “>”.

Data set [2] is described as follows: Dynamic vapor sorption (DVS), water sorption isotherm.
Assay in data set [3]: as above
On the procedure:
Vapor sorption data were collected on a Surface Measurement System DVS Intrinsic instrument. Samples were not dried prior to analysis. Sorption and desorption data were collected over a range from 5% to 95% RH at 10% RH increments under a nitrogen purge. The equilibrium criterion used for analysis was less than 0.0100% weight change in 5 minutes with a maximum equilibration time of 3 hours.
The source holds these as a separate data set.

Converted amounts (≈) assume the structure as drawn. “Also recorded” adds a separate entry of the source. Like-named read-outs stand apart in the source and are kept apart here.

With `C[C@H]1CCCN(Cc2cc(C(F)(F)F)c3cn(-c4cccc([C@H](c5nncn5C)C5CCC5)c4)c(=O)n3c2)C1` [2-(3-((R)-cyclobutyl(4-methyl-4H-1,2,4-triazol-3-yl)methyl)phenyl)-6-(((S)-3-methylpiperidin-1-yl)methyl)-8-(trifluoromethyl)imidazo[1,5-a]pyridin-3(2H)-one], the solubility in data set [1] (aqueous with cosolvent or surfactant or cyclodextrin, solvent Water/EtOH (20/80 v/v), read-out: Solubility) was more than 29 mg/mL; in data set [1] (aqueous with cosolvent or surfactant or cyclodextrin, solvent Water/EtOH (40/60 v/v), read-out: Solubility) it was more than 36 mg/mL; in data set [1] (aqueous with cosolvent or surfactant or cyclodextrin, solvent Water/EtOH (50/50 v/v), read-out: Solubility) it was 9 mg/mL (≈ 16.7 mM); in data set [1] (aqueous with cosolvent or surfactant or cyclodextrin, solvent Water/EtOH (60/40 v/v), read-out: Solubility), less than 4 mg/mL; in data set [1] (aqueous with cosolvent or surfactant or cyclodextrin, solvent Water/IPA (20/80 v/v), read-out: Solubility), more than 30 mg/mL; in data set [1] (aqueous with cosolvent or surfactant or cyclodextrin, solvent Water/IPA (40/60 v/v), read-out: Solubility), more than 37 mg/mL. In addition, the solubility in data set [1] (aqueous with cosolvent or surfactant or cyclodextrin, solvent Water/IPA (60/40 v/v), read-out: Solubility) is 9 mg/mL (≈ 16.7 mM); in data set [1] (aqueous with cosolvent or surfactant or cyclodextrin, solvent Water/MeOH (20/80 v/v), read-out: Solubility), more than 29 mg/mL; in data set [1] (aqueous with cosolvent or surfactant or cyclodextrin, solvent Water/MeOH (40/60 v/v), read-out: Solubility), 7 mg/mL (≈ 13 mM); in data set [1] (aqueous with cosolvent or surfactant or cyclodextrin, solvent Water/MeOH (60/40 v/v), read-out: Solubility), less than 3 mg/mL; in data set [1] (organic solvent or mixture, solvent ACN, read-out: Solubility), 85 mg/mL (≈ 158 mM); in data set [1] (organic solvent or mixture, solvent Acetone, read-out: Solubility), 31 mg/mL (≈ 57.6 mM). Further, the solubility is more than 100 mg/mL in data set [1] (organic solvent or mixture, solvent DCM, read-out: Solubility); less than 2 mg/mL in data set [1] (organic solvent or mixture, solvent DIPE, read-out: Solubility); 38 mg/mL (≈ 70.6 mM) in data set [1] (organic solvent or mixture, solvent EtOAc, read-out: Solubility); 99 mg/mL (≈ 184 mM) in data set [1] (organic solvent or mixture, solvent EtOH, read-out: Solubility); less than 1 mg/mL in data set [1] (organic solvent or mixture, solvent Heptane, read-out: Solubility); 79 mg/mL (≈ 147 mM) in data set [1] (organic solvent or mixture, solvent IPA, read-out: Solubility). Moreover, the solubility in data set [1] (organic solvent or mixture, solvent MTBE, read-out: Solubility) is 4 mg/mL (≈ 7.43 mM); in data set [1] (organic solvent or mixture, solvent MeOH, read-out: Solubility), 91 mg/mL (≈ 169 mM); in data set [1] (organic solvent or mixture, solvent THF, read-out: Solubility), 95 mg/mL (≈ 176 mM); in data set [1] (organic solvent or mixture, solvent Toluene, read-out: Solubility), 99 mg/mL (≈ 184 mM); in data set [1] (solvent Water, read-out: Solubility), less than 1 mg/mL. Further, in data set [2] (5% to 96% RH), the total water gained was 7.6 moles of water. In addition, the total weight gained in data set [2] (5% to 96% RH) is 15.8%. For the same compound, the weight gain in data set [2] (from 75% to 96% RH) stood at 14.6 % wt; in data set [3] (from 5% to 74% RH), 1.2 % wt. Moreover, the “XRPD analysis on the post-DVS sample (solid form)” value in data set [3] (after DVS) is listed as “amorphous”. The hysteresis on desorption entry in data set [3] (desorption step) is given as “very minor hysteresis; also recorded: Significant hysteresis”. In addition, the “water taken up during sorption” value in data set [3] (from 5 to 95% RH) was 0.1 moles of water per mole of API. In addition, in data set [3] (from 5 to 95% relative humidity (RH)), the “weight gain during the sorption step” value is reported as 0.4%. The “appearance of sample after DVS” value in data set [3] (upon desorption) is listed as “signs of partial deliquescence”. In addition, the hygroscopicity classification entry in data set [3] (water sorption isotherm, Ph. Eur. 10.0 classes) is given as “slightly hygroscopic”.
On to `C[C@H]1CCCN(Cc2cc(C(F)(F)F)c3cn(-c4cccc([C@H](c5nncn5C)C5CCC5)c4)c(=O)n3c2)C1`, for which the solubility in data set [1] (water, 25° C., by solvent addition, read-out: aqueous solubility) was more than 111 mg/mL.
